The record followed here is PubChem BioAssay (NCI).

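Following 48 hours of exposure in 96-well plates, responses at five concentrations were used to interpolate endpoints linearly. GI50 marks 50% less growth. TGI: total growth inhibition.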

Some test systems named below: XF 498 CNS; M19-MEL melanoma; LXFL 529 NSCLC; RXF-631 renal; DMS 273 small cell lung; DMS 114 small cell lung; HOP-18 NSCLC; BT-549 breast; MDA-N.
Common to all, as to test: NCI anticancer screen, dose series, 48 h

With `c1ccc(SC(CCCCC(Sc2ccccc2)Sc2ccccc2)Sc2ccccc2)cc1`, the TGI with XF 498 CNS, in the assay on M19-MEL melanoma, with LXFL 529 NSCLC, with RXF-631 renal, with DMS 273 small cell lung and in the assay on DMS 114 small cell lung was more than 100 µM in each case.

Take `O=C(O)C1(P(=O)(O)O)CC1`: the TGI with HOP-18 NSCLC, with XF 498 CNS, in the assay with M19-MEL melanoma, in the assay with LXFL 529 NSCLC, with DMS 273 small cell lung and with DMS 114 small cell lung was more than 100 µM throughout.

Regarding `O=C1C(=O)N(c2ccc(Cl)c(Cl)c2)C(=O)C(=O)C1c1nc2ccccc2s1`, the TGI with HOP-18 NSCLC, in the assay with M19-MEL melanoma, in the assay with LXFL 529 NSCLC, in the assay on DMS 273 small cell lung and in the assay on DMS 114 small cell lung was more than 100 µM throughout.

On to `CSCC1CC(c2ccc(Cl)cc2)=NO1` (stereo not given), for which the TGI with HOP-18 NSCLC, with M19-MEL melanoma, with LXFL 529 NSCLC, with RXF-631 renal, in the assay with DMS 273 small cell lung and in the assay on DMS 114 small cell lung was more than 100 µM in each case.

As for `O=c1cc(-c2ccccc2)[nH]c2cc(O)ccc12`, the TGI in the assay with HOP-18 NSCLC was more than 100 µM; in the assay on XF 498 CNS, 50.4 µM; with M19-MEL melanoma, 35.3 µM; with LXFL 529 NSCLC, more than 100 µM; in the assay with RXF-631 renal, more than 100 µM; with DMS 273 small cell lung, 87.8 µM. This compound also returned a TGI with DMS 114 small cell lung of 34 µM.

On to `COc1ccc(N=c2ssc3c(=S)ssc23)cc1`, for which the TGI is more than 100 µM with M19-MEL melanoma, 31.9 µM in the assay on LXFL 529 NSCLC, 74.4 µM in the assay with DMS 273 small cell lung and 26 µM in the assay on DMS 114 small cell lung.

As for `O=C(N/N=C/c1ccc2c(c1)CCC2)c1ccccc1O`, the TGI in the assay on BT-549 breast worked out at 41.7 µM; in the assay with MDA-N it was 64.8 µM.

As to `COc1ccc(C2=C(Cl)c3cc(OC)c(OC)cc3C2Cl)cc1OC` (stereo not given), the TGI was found to be 55.6 µM in the assay on HOP-18 NSCLC; 29.4 µM in the assay with XF 498 CNS; 31.7 µM in the assay with M19-MEL melanoma; 44.4 µM in the assay with RXF-631 renal; 30.4 µM in the assay on DMS 273 small cell lung.

Consider `CCOC(=O)C(=O)Nc1c(CC)cccc1C(C)C`, for which the TGI in the assay with XF 498 CNS, with M19-MEL melanoma, in the assay with LXFL 529 NSCLC and in the assay on DMS 273 small cell lung was more than 100 µM each time.

With `Nn1c(-c2ccccc2Cl)nc2ccccc2c1=O`, the TGI with HOP-18 NSCLC, with XF 498 CNS, with M19-MEL melanoma, in the assay with LXFL 529 NSCLC, with RXF-631 renal and in the assay with DMS 273 small cell lung was more than 100 µM in each case. In addition, the TGI in the assay with DMS 114 small cell lung is more than 100 µM.

For the compound `CS(=O)(=O)Oc1cccc(/C=N/N=C(\N)NO)c1`, the TGI with HOP-18 NSCLC was more than 100 µM; with XF 498 CNS it was 32.5 µM; in the assay with M19-MEL melanoma, more than 100 µM; in the assay with LXFL 529 NSCLC, more than 100 µM; in the assay with DMS 273 small cell lung, 65.8 µM; in the assay with DMS 114 small cell lung it was more than 100 µM.

`CCOC(=O)C1=C(NC)OC/C1=N\NC(=O)c1ccccc1O`: the TGI in the assay on HOP-18 NSCLC is more than 100 µM; in the assay on XF 498 CNS, more than 100 µM; with M19-MEL melanoma it was more than 100 µM; with LXFL 529 NSCLC, more than 100 µM; with DMS 273 small cell lung it was more than 100 µM; in the assay with DMS 114 small cell lung, 89.6 µM.

In the case of `N#CC(C(=O)CCC(=O)Nc1cccc(Cl)c1)c1ccccc1` (stereo not given), the TGI in the assay with HOP-18 NSCLC, with M19-MEL melanoma, with LXFL 529 NSCLC, with RXF-631 renal, with DMS 273 small cell lung and in the assay with DMS 114 small cell lung was more than 100 µM each time.

As to `COc1ccc(-c2n[nH]nc2-c2cc(OC)c3c(c2OC)OCO3)cc1`, in the assay with BT-549 breast, the GI50 was 0.544 µM and the TGI was 25.9 µM.

Take `COc1ccc(-c2cc(-c3ccccc3)nc(SCCCC(=O)NO)n2)cc1`: in the assay with BT-549 breast, the GI50 is 2.76 µM and the TGI is 13.1 µM.

In the case of `Clc1cc(Cl)c(OCC#CI)cc1Cl`, in the assay on BT-549 breast, the GI50 was 7.21 µM and the TGI was determined as 19.8 µM.

In turn, `CCCCCCCCCCCCCCCCCC(=O)OCC(COC1OC(COP(=O)(O)O)C(O)C(O)C1O)OC(=O)CCCCCCCCCCCCCCCCC` (stereo not given) yielded a TGI in the assay with MDA-N of 20.1 µM.

Consider `CCC1CN2CCc3cc(OC)c(OC)cc3C2CC1CC1c2cc(OC)c(OC)cc2CCN1C(=O)C1CCCN1C(=O)OCc1ccccc1` (stereo not given), for which the TGI turned out to be 53.7 µM in the assay on HOP-18 NSCLC; 30.4 µM in the assay with XF 498 CNS; 28.8 µM with M19-MEL melanoma; 29.9 µM with LXFL 529 NSCLC; 33.9 µM in the assay on RXF-631 renal; 30.3 µM in the assay on DMS 273 small cell lung. The TGI in the assay with DMS 114 small cell lung stood at 26.9 µM.

As for `COC1CC(OS(=O)(=O)c2ccc(C)cc2)C(OC(=O)c2ccccc2)C(C)O1` (stereo not given), the TGI was more than 10 µM in the assay on HOP-18 NSCLC; more than 100 µM in the assay with XF 498 CNS; more than 100 µM in the assay on M19-MEL melanoma; more than 100 µM in the assay on LXFL 529 NSCLC; more than 10 µM with DMS 273 small cell lung; more than 100 µM in the assay on DMS 114 small cell lung. For the same compound, the GI50 in the assay on M19-MEL melanoma and with LXFL 529 NSCLC was more than 100 µM each time.

Compound `CNC(=O)OCc1c(COC(=O)NC)c(C)n(-c2ccc(Br)cc2)c1C` came in with a TGI in the assay with MDA-N of 32 µM.

Turning to `COC(=O)C(Cc1ccccc1)NC(=O)NC(=O)NC(=O)CI` (stereo not given), in the assay on BT-549 breast, the GI50 was 10 µM and the TGI stood at 21.8 µM.

In the case of `CC1=C(CCC(C)N(C)Cc2ccc(OCCCN3CCCC3)cc2)C(C)(C)CCC1` (stereo not given), in the assay with BT-549 breast, the GI50 is 12.3 µM and the TGI is 27.1 µM.

In the case of `N#C/C(=C\c1c(-c2ccccc2)[nH]c2ccccc12)S(=O)(=O)c1ccccc1`, in the assay on BT-549 breast, the GI50 was 10 µM and the TGI was more than 56.9 µM.

Turning to `COc1cc2c(cc1OC(=O)CC(C)O)C1C(OC2=O)C(OC(C)=O)C=C2CCN(C)[C@H]21` (stereo not given in full), the TGI was 69.4 µM with HOP-18 NSCLC; 38.6 µM in the assay with XF 498 CNS; more than 100 µM in the assay on M19-MEL melanoma; more than 100 µM in the assay with LXFL 529 NSCLC; 93.9 µM in the assay with RXF-631 renal; more than 100 µM in the assay on DMS 273 small cell lung.

Turning to `c1ccc2c(C3NCCc4[nH]cnc43)cccc2c1` (stereo not given), the TGI with HOP-18 NSCLC, in the assay with M19-MEL melanoma, in the assay on LXFL 529 NSCLC, in the assay with DMS 273 small cell lung and in the assay on DMS 114 small cell lung was more than 100 µM throughout.
